Assay results: the supplement of paper PMC10307832

Columns and labels:
Experiment in all cases: relative viability (nuclei count vs DMSO), 5 days (fraction); higher = more cells survive
[1] = compound: CC1=CC(=NN1)NC2=CC(=NC(=N2)/C=C/C3=CC=CC=C3)N4CCN(CC4)C + Cc1nc(NC(=O)N2CCC[C@H]2C(N)=O)sc1-c1ccnc(C(C)(C)C(F)(F)F)c1 [Alpelisib] (partner 2 µM)
Method in brief: (§1)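 After 5 days of treatment, lung cancer cells in 1536-well plates were fixed and stained in a single step (final 0.05% Triton X-100, 1% formaldehyde, 1 ug/ml Hoechst) and their nuclei counted on 4× images. Treatment had been applied by pin tool the day after seeding as one drug alone or as a fixed anchor-drug dose with five library-drug doses (not always all listed) in √10 steps. Relative viability is the nuclei count of treated wells divided by that of vehicle wells, and values are medians of duplicate plates.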

Obatoclax + AZD7762 = compound: COC1=CC(c2cc3ccccc3[nH]2)=N/C1=C\c1[nH]c(C)cc1C [Obatoclax] + NC(=O)Nc1cc(-c2cccc(F)c2)sc1C(=O)N[C@H]1CCCNC1 [AZD7762] (partner 0.2 µM)
Method in brief: as §1

[2] = compound: CC1=CC(=NN1)NC2=CC(=NC(=N2)/C=C/C3=CC=CC=C3)N4CCN(CC4)C + COc1cccc2cc(-c3nc([C@H]4CC[C@H](C(=O)O)CC4)n4ncnc(N)c34)[nH]c12 [OSI-027] (partner 0.5 µM)
Method in brief: as §1

[3] = compound: CC1=CC(=NN1)NC2=CC(=NC(=N2)/C=C/C3=CC=CC=C3)N4CCN(CC4)C + O=C(CCCCCCC(=O)Nc1ccccc1)NO [Vorinostat] (partner 1 µM)
Method in brief: as §1

NCI-H650 was tested, and the relative viability ([1]; first compound 0.08 µM) was 1.12, the relative viability ([1]; first compound 0.253 µM) was 1.19 and the relative viability ([1]; first compound 0.8 µM) was 1.03. For the same cell line, the relative viability ([1]; first compound 2.53 µM) was 0.811, the relative viability ([1]; first compound 8 µM) was 0.171 and the relative viability (Obatoclax + AZD7762; first compound 0.01 µM) was 0.998. It also gave a relative viability (Obatoclax + AZD7762; first compound 0.03162 µM) of 0.925, a relative viability (Obatoclax + AZD7762; first compound 0.3162 µM) of 0.513 and a relative viability (Obatoclax + AZD7762; first compound 1 µM) of 0.324. It also gave a relative viability ([2]; first compound 0.253 µM) of 0.597, a relative viability ([2]; first compound 0.8 µM) of 0.575 and a relative viability ([2]; first compound 2.53 µM) of 0.47. For the same cell line, the relative viability ([2]; first compound 8 µM) was 0.172, the relative viability ([3]; first compound 0.08 µM) was 0.412 and the relative viability ([3]; first compound 0.253 µM) was 0.717. It also gave a relative viability ([3]; first compound 0.8 µM) of 0.495, a relative viability ([3]; first compound 2.53 µM) of 0.409 and a relative viability ([3]; first compound 8 µM) of 0.174.
